From publication PMC12693327, “SERAAK2 as a Serotonin Receptor Ligand: Structural and Pharmacological In Vitro and In Vivo Evaluation” (Molecules, 2025)

Experiments:
SH-SY5Y cells = test: MTS cytotoxicity assay in SH-SY5Y cells; assay type: cell-based, human; settings: 30 µM, 72 h
Procedure: The cytotoxic potential of SERAAK2 was evaluated in two human-derived cell lines chosen for their physiological relevance: HepG2 (hepatocellular carcinoma) and SH-SY5Y (neuroblastoma). […] It is particularly noteworthy that the use of the SERAAK2 compound at a concentration of 30 µM reduces the number of viable cells below the level of the positive control (doxorubicin) at the same concentration (Table 3). […] Under the experimental conditions used, after 72 h of incubation, a fraction of doxorubicin-treated cells remains metabolically active and generates a low signal in the MTS assay. The enhanced signal reduction observed in the MTS assay for the tested compound, compared to doxorubicin, indicates strong cytotoxic activity leading to necrosis of the entire cell population.
An assessment of the cytotoxic potential of SERAAK2 was carried out utilizing the colorimetric MTS assay. This investigation was executed on both HepG2 and SH-SY5Y cell lines, adhering to an identical procedure. The cell lines, sourced from the American Type Culture Collection (Manassas, VA, USA), were cultured under standard conditions (5% CO2, 37 °C) in DMEM/F12 medium (#31330-038, ThermoFisher Scientific, Waltham, MA, USA). The medium was supplemented with 10% Fetal Bovine Serum (FBS, #A5256801, ThermoFisher Scientific) and a Penicillin–Streptomycin solution (#15140-122, ThermoFisher Scientific) until their use in the study. Cells within passage numbers 15 to 25 were plated in 96-well plates at a density of 5000 cells per well in 200 μL of medium and allowed to adhere during a 24 h incubation at 37 °C with 5% CO2. […] The plates were then subsequently returned to the 37 °C incubator, after which absorbance was recorded with a Spark microplate reader; this measurement occurred after 1 h for the HepG2 line and 3 h for the SH-SY5Y line. The ultimate cell viability percentage was determined by comparing results to the control wells, which represented 100% viability, and the wells treated with 10 μM doxorubicin, which were defined as 0% viability. […]

CYP3A4 = biological target: T1, CYP3A4 (Homo sapiens, UniProt P08684); set-up: method as in PMID 40430337; settings: cited from earlier work
T1 construct: purchased Promega

[1] = set-up: method as in PMID 40430337; settings: cited from earlier work
mice [2] = test system: mice; set-up: method as in PMID 40430337; settings: 30–60 mg/kg; cited from earlier work
mice [3] = test system: mice; set-up: method as in PMID 40430337; settings: 30–60 mg/kg, rotarod and chimney; cited from earlier work
mice [4] = test system: mice; set-up: method as in PMID 40430337; settings: 30 mg/kg; cited from earlier work
mice [5] = test system: mice; set-up: method as in PMID 40430337; settings: 30 mg/kg; cited from earlier work; remark: listed apart in the source
mice [6] = test system: mice; set-up: method as in PMID 40430337; settings: 30 mg/kg; cited from earlier work; remark: listed apart in the source
CYP2D6 = CYP2D6 (Homo sapiens, UniProt P10635); set-up: purchased Promega; method as in PMID 40430337; settings: cited from earlier work
mice [7] = test: Amphetamine-induced hyperactivity; assay type: in vivo; settings: amphetamine 3 mg/kg, vs saline-treated group, p < 0.05
Procedure: The investigated compound (SER2AAK2) was bought from Enamine (purity over 95%) and in all tests was administered intraperitoneally (i.p.), spread in a drop of Tween 80, and diluted with an aqueous solution of 0.5% methylcellulose (tylose) and injected 60 min before the tests in a volume of 10 mL/kg. Control groups received tylose injections of the same volume and via the same route of administration.
Locomotor activity of the mice was assessed using the Opto-Varimex-4 Auto-Track system (Columbus Instruments, OH, USA). Each mouse was placed individually in a testing cage for 25 min—5 min for acclimatization, followed by 20 min of activity recording. (6a) The total distance traveled (in centimeters) was measured. Cages were cleaned with 10% ethanol between sessions.

Chain of CYP2D6 (P10635 whole entry): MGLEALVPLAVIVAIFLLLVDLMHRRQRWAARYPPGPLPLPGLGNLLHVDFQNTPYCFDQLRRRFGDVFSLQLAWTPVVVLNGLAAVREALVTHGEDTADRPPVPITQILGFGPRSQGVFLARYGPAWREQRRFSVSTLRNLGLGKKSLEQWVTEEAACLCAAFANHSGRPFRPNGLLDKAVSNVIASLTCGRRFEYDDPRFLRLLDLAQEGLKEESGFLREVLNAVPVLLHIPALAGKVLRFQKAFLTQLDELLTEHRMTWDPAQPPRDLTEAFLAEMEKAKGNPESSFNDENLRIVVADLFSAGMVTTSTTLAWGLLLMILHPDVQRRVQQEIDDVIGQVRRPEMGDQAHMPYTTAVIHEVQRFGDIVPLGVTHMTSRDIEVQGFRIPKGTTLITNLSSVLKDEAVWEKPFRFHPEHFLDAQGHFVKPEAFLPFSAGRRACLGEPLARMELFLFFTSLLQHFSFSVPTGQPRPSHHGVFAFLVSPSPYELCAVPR
T1 sequence (P08684 whole entry): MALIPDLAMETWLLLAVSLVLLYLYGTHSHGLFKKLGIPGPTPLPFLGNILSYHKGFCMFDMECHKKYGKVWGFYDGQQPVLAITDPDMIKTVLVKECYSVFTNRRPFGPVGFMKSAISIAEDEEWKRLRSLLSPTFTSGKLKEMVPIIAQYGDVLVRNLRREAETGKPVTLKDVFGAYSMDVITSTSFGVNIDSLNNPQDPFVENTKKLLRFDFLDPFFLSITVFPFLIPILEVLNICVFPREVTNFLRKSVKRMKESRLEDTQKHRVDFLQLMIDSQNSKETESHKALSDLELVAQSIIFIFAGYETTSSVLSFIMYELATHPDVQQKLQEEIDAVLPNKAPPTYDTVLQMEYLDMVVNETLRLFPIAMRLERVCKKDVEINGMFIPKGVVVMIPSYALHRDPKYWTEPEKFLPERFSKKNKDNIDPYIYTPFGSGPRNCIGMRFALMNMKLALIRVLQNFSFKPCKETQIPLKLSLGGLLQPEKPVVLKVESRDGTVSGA

Structure (SMILES): COc1cccc2c1C(=O)c1c(O)c3c(c(O)c1C2=O)C[C@@](O)(C(=O)CO)C[C@@H]3O[C@H]1C[C@H](N)[C@H](O)[C@H](C)O1 [DOX, Doxorubicin, reference compound]
- Percentage Reduction in the Number of Viable SH-SY5Y Cells [Mean ± SEM] (SH-SY5Y cells): 102 ± 1%

Structure (SMILES): OC(COC(c1ccccc1)c1ccccc1)CN1CCN(C(c2ccccc2)c2ccccc2)CC1 (stereo not shown) [SERAAK1]
- CYP3A4 induction (increase of activity) (CYP3A4): 3.5 fold
- Pe (PAMPA) [1]: < 0.01 ×10⁻⁶ cm/s
- Spontaneous locomotor activity (mice [2]): no change (30–60 mg/kg)
- Motor coordination (rotarod, chimney) (mice [3]): no impairment (30–60 mg/kg)—stable motor profile
- Elevated plus maze (EPM), open arm time and entries (mice [4]): ↑ open arm time and entries (30 mg/kg)—anxiolytic effect
- Forced swim test (FST), immobility (mice [5]): ↓ immobility (30 mg/kg)—antidepressant-like effect connected with serotonergic modulation
- amphetamine-induced hyperactivity (mice [6]): ↓ hyperactivity (30 mg/kg)
- IC50 (CYP2D6): 720 nM

Structure (SMILES): CC(N)Cc1ccccc1 (stereo not shown) [amphetamine, reference compound]
- locomotor activity after amphetamine alone (mice [7]): significantly increased the locomotor activity
